In ChEMBL document CHEMBL1287739, “A novel ring-expanded product with enhanced tyrosinase inhibitory activity from classical Fe-catalyzed oxidation of rosmarinic acid, a potent antioxidative Lamiaceae polyphenol” (Bioorg Med Chem Lett, 2010):

Legend:
[1] = biological target: T1, Tyrosinase (Agaricus bisporus) (UniProt O42713); assay: Inhibition of mushroom tyrosinase at 1.00 mM
T1 sequence (whole entry): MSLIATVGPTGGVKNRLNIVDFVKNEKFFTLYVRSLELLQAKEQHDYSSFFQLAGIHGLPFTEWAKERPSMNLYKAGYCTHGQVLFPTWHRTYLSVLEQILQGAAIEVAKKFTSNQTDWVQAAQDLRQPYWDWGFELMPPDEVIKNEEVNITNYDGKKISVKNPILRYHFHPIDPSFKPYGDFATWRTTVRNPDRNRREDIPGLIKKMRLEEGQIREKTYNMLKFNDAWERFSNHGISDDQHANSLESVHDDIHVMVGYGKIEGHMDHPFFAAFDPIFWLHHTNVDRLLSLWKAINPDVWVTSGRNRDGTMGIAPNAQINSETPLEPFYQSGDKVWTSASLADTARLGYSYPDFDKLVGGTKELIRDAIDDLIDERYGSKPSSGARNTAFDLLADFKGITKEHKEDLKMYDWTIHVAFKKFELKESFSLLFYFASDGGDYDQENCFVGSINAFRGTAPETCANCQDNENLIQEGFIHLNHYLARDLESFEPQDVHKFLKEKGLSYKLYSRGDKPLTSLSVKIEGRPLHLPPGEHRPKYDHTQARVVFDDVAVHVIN

Tyrosinase = biological target: T2, Tyrosinase (Agaricus bisporus, UniProt O42713); assay: Inhibition of mushroom tyrosinase
T2 sequence (O42713 whole entry): T1 sequence (whole entry)

[2] = biological target: T1, Tyrosinase (Agaricus bisporus); assay: Inhibition of mushroom tyrosinase at 10.0 mM
[3] = biological target: T1, Tyrosinase (Agaricus bisporus); assay: Inhibition of mushroom tyrosinase at 3.00 mM
[4] = biological target: T1, Tyrosinase (Agaricus bisporus); assay: Inhibition of mushroom tyrosinase at 0.10 mM

Row | inhibition [1] [%] | IC50 (Tyrosinase) [µM] | inhibition [2] [%] | inhibition [3] [%] | inhibition [4] [%] | SMILES
1 | 40.7 | 250 | 93.6 | 69.8 | – | O=C(/C=C/c1ccc(O)c(O)c1)O[C@H](Cc1ccc(O)c(O)c1)C(=O)O [ROSMARINIC ACID]
2 | – | 80 | – | – | 52.5 | CCOc1cc(=O)c(C[C@@H](OC(=O)/C=C/c2ccc(O)c(O)c2)C(=O)O)coc1=O
